The target in experiment [1] is T1, C3aR (Homo sapiens, UniProt Q16581).
T1 sequence (Q16581 1-482): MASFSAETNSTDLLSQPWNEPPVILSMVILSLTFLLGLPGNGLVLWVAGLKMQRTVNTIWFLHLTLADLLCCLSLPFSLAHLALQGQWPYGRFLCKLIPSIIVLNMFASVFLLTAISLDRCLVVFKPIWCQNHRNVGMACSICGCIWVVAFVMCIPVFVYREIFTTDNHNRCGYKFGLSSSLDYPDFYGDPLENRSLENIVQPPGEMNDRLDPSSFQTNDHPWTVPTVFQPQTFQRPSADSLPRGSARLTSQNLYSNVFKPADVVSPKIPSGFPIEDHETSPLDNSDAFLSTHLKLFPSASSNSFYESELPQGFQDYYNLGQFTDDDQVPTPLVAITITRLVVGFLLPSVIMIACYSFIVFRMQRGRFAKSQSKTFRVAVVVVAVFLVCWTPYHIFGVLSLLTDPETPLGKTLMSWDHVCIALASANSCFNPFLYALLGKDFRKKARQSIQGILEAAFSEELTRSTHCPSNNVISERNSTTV
Description: Histamine secretion in human LAD2 mast cells (agonist mode). The format is cell-based. Details: Concentration-dependent histamine secretion in human LAD2 mast cells; endogenous in cells; host or cells: LAD2 human mast cells. The following applies: for EC50: compound alone, 30 min, n ≥ 3, ± SEM. As to the method:
LAD2 human mast cells (kindly provided by Dr Dean Metcalfe, National Institute of Allergy and Infectious Diseases, National Institute of Health) were cultured in StemPro®-34 Serum Free Media (Invitrogen, Australia) supplemented with StemPro®-34 nutrient, 100 U/mL penicillin, 100 μg/mL streptomycin, 2 mM GlutaMAX, and 100 ng/mL human stem cell factor (SCF). Cells were hemi-depleted weekly and were not allowed to grow beyond a density of 0.5 × 10^6/mL. This cell line was authenticated by expression of tryptase and histamine granules. For the histamine assay, 1 × 10^4 cells per well were seeded in StemPro®-34 SFM in 96-well plates for 30 min before any treatments. For agonist studies, the cells were treated with compounds prepared in media for 30 min. For antagonist studies, the cells were pre-treated with compounds prepared in SFM for 30 min before addition of C3aR agonists for another 30 min. Cells were centrifuged (500 g, 5 min, 4 °C) and cell-free supernatants were collected for measuring histamine. Histamine content was measured using the histamine EIA kit according to the manufacturer’s instructions (Abnova, Taiwan). The readings were recorded on a FLUOstar Optima (BMG LabTechnologies, Offenburg, Germany).

The target in experiment [2] is T1, C3aR. Description: Intracellular Ca2+ release in human monocyte-derived macrophages (agonist mode). The format is cell-based. Also noted: Concentration-dependent Ca^2+ release in human monocyte-derived macrophages (HMDMs); endogenous in cells; host or cells: primary human monocyte-derived macrophages (HMDMs). To be noted: HMDMs, n ≥ 3, ± SEM. As to the method:
(§1) HMDMs were isolated using Ficoll-paque density centrifugation (GE Healthcare Bio-Science, Uppsala, Sweden) from buffy coat (of anonymous human donors) provided by the Australian Red Cross Blood Service, Brisbane. CD14^+ monocytes were positively selected using CD14 MicroBeads (Miltenyi Biotech, Auburn, USA)[40], [41]. CD14^+ monocytes were differentiated to HMDMs using 100 ng/mL of recombinant human macrophage colony-stimulating factor (PeptroTech, Rocky Hill, USA) for 7 days in Iscove’s modified Dulbecco’s media supplemented with 10% fetal bovine serum, penicillin (100 U/mL), streptomycin (100 µg/mL) and L-glutamine (2 mM). HMDMs were supplemented after 5 days with fresh medium containing 10 ng/ml macrophage colony-stimulating factor and collected by gentle scraping on day 7.
(§2) HMDMs were seeded to a 96-well clear-bottom black-wall assay plate at a density of 5 × 10^4 cells per well and allowed to adhere overnight. Prior to assay, cells were incubated with dye-loading buffer (Hank’s balance salt solution (HBSS) buffer, 4 μM Fluo-3 AM, 25 μl Pluronic acid F-127 and 1% fetal bovine serum) for 1 h at 37 °C. Cells were then washed once with assay buffer (HBSS supplemented with 2.5 mM probenecid and 20 mM HEPES, pH 7.4). Intracellular calcium release was monitored using a fluorescence imaging plate reader (excitation 495 nm, emission 520 nm). The percentage responses were plotted against logarithmic concentrations of each test compound[42].

The target in experiment [3] is T1, C3aR. Description: Inhibition of hC3a-induced Ca2+ release in human monocyte-derived macrophages. Details: Concentration-dependent Ca^2+ release in human monocyte-derived macrophages (HMDMs); endogenous in cells; host or cells: primary human monocyte-derived macrophages (HMDMs). The following applies: HMDMs, hC3a 100 nM, n ≥ 3, ± SEM. The format is cell-based. As to the method: as §1, §2

In a further experiment the test system is mast cells. Nature of the experiment: Mast cell stabilizer in BR103-induced rat paw edema. The format is in vivo. To be noted: 20 mg/kg s.c., 30 min prior, 0.5 h. As to the method:
Male Wistar rats (8–9 weeks) were injected with BR103 (3, 350 μg in 100 μL isotonic saline) into the plantar surface of both hind paw pads using a 30G needle. The inhibitor cromolyn (20 mg/kg in 5% DMSO) was injected subcutaneously 30 min before the agonist. The antagonist BR111 (6, 5–20 mg/kg in olive oil) was administered orally as a single dose 2 h before the agonist. Paw thickness and width were measured using digital calipers (WPI) at 0, 0.5, 2, 6 and 24 h after agonist BR103 administration. Hind paw size is expressed as % change in area from baseline after 0.5 h and then normalized against maximum swelling induced by agonist alone. Researchers were not blinded to treatments given. Rat paw tissue was collected and fixed in 4% paraformaldehyde (pH 7.4) for 2 h in the cold room (4 °C). The rat paw tissue was then transferred into falcon tubes containing 30% sucrose solution in PBS and left overnight in the cold room. The next day, rat paw tissue was embedded with the Optimal Cutting Temperature compound (OCT, Sakura Finetek, USA) and stored in the −80 °C freezer before being used for making cryo-sections for histological analysis. Frozen sections of 5 microns were prepared using a cryostat-microtome (Leica Biosystems, Germany) and stained using standard protocols on the same day. In normal histological staining, such as with alcian blue and safranin O and hematoxylin and eosin (H&E), samples were briefly washed with distilled water before staining. In alcian blue and safranin O, samples were stained with 0.1% alcian blue (Sigma-Aldrich, USA) and 0.5% safranin O (Sigma-Aldrich, USA) before being mounted in mounting medium. In H&E, samples were stained with hematoxylin (Sigma-Aldrich, USA) and 0.1% eosin (Sigma-Aldrich, USA) before being mounted in mounting medium. In immunohistochemistry, samples were briefly rinsed with PBS to remove OCT and incubated with blocking medium (PBS, 0.1% triton X-100, 10% horse serum) for 1 h at room temperature. Samples were incubated with primary antibody medium (PBS, 4% horse serum, 1:200 histamine or 1:200 of tryptase or 1:150 ED1 or 1:200 ED2 antibodies) overnight at 4 °C. The next day, samples were washed with PBS and were incubated with the secondary antibody medium (PBS, 4% horse serum, detection antibody 1:1000) for 1 h at room temperature. The samples were briefly rinsed, dried and counterstained with DAPI (Invitrogen, Australia). Primary antibodies for histamine (Sigma-Aldrich, USA, H2403, monoclonal rabbit anti-rat IgG, 1: 200), tryptase (Abcam, Australia, ab2378, monoclonal mouse anti-rat IgG, 1:200), ED1 (Serotec, UK, MCA341R, monoclonal mouse anti-rat, 1:150), ED2 (Serotec, UK, MCA3424R, monoclonal mouse anti-rat, 1:200) were purchased from commercial sources. Secondary detection antibody was purchased from (Invitrogen, Australia). ED1 & ED2 positive cells were quantified using FIJI/ImageJ 1.42q software, U.S. National Institutes of Health, Bethesda, MD, USA[44]. All microscope images were obtained using an Olympus BX-51 upright microscope with Olympus DP-71 12Mp colour camera, utilizing DP Capture and DP Manager software packages (Olympus, Tokyo, Japan). Researchers who performed histological analysis and scoring were blinded to the sample identity. Rat paw tissues were collected and immediately frozen with liquid nitrogen. Frozen rat paw tissues were cut into smaller pieces and mixed with 1 mL of TRIsure (Bioline, Australia) prior to homogenizing according to manufacturer’s instructions. […]

In a further experiment the target is T2, C5aR (Homo sapiens, UniProt P21730).
T2 construct: endogenous in cells; host or cells: primary human monocyte-derived macrophages (HMDMs)
T2 sequence (P21730 1-350): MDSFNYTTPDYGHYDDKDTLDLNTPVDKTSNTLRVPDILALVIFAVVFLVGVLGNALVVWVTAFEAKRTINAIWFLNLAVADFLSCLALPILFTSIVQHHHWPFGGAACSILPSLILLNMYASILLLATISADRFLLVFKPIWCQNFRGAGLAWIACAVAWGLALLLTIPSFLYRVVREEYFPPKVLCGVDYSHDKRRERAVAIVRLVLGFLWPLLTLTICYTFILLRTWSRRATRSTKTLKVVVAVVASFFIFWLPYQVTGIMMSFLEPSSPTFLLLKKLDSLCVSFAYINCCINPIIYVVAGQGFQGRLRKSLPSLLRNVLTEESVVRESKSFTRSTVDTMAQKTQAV
Description: [125I]-hC5a competition binding on HMDMs. To be noted: [125I]-hC5a 25 pM. The procedure:
Receptor binding was performed by ligand competition with labelled 80 pM [^125I]-C3a or 25 pM [^125I]-C5a (2200 Ci/mmol; Perkin Elmer, Torrance, CA, USA) on HMDMs (1.2 × 10^6 cells/ml). HMDMs were treated with [^125I]-C3a or [^125I]-C5a ± various concentrations of unlabelled C3a/C5a or experimental ligands were diluted with assay buffer (50 mM Tris, 3 mM MgCl2, 0.1 mM CaCl2, 0.5% (w/v) BSA, pH 7.4) for 60 min at room temperature. Unbound [^125I]-C3a or [^125I]-C5a was removed by filtration through glass microfibre filter GF/B (Whatman Iner. Ltd, England) and washed three times with cold buffer (50 mM Tris-HCl pH 7.4). Bound [^125I]-C3a or [^125I]-C5a were assessed by scintillation counting on Microbeta counter. Specific binding was defined as the difference between total binding and nonspecific binding as determined in the presence of 1 μM unlabelled C3a or C5a[4].

In general, EC50 refers to the concentration that produces a half-maximal response. Higher therefore signals a less potent agent. The term IC50 denotes the concentration that gives 50% inhibition. Low readings indicate inhibition by little substance, high ones a need for much substance.

In the case of `N=C(N)NCCC[C@H](NC(=O)c1csc(C(c2ccccc2)c2ccccc2)n1)C(=O)O` [Compound 1], on C3aR [1], the “Type of agonist response, histamine release” value is “partial agonist” and the EC50 came to 110 ± 40 nM. The same molecule showed an EC50 on C3aR [2] of 50 ± 20 nM.
For `Cc1sc(C(c2ccccc2)c2ccccc2)nc1C(=O)N[C@@H](CCCNC(=N)N)C(=O)O` [Compound 2], in that order: “full agonist response”, 300 ± 100 nM and 140 ± 60 nM.
On to `N=C(N)NCCCC(NC(=O)c1cnc(C(c2ccccc2)c2ccccc2)s1)C(=O)O` (stereo not drawn) [Compound 4], for which the IC50 against C3aR [3] is 600 ± 200 nM.
Still for that read-out and setting: under `Cc1nc(C(c2ccccc2)c2ccccc2)sc1C(=O)NC(CCCNC(=N)N)C(=O)O` (stereo not drawn) [Compound 5] stands 2000 ± 1100 nM.
Regarding `O=C(O)c1cc(=O)c2c(OCC(O)COc3cccc4oc(C(=O)O)cc(=O)c34)cccc2o1` [cromolyn], in the experiment with mast cells, the “Effect on BR103-induced histamine expression in paw” value is given as “reduced histamine expression”; the “Effect on BR103-induced infiltration of ED1+ macrophages” value is “reduced infiltration of inflammatory ED1^+ macrophages”; the “Effect on BR103-induced inflammatory gene expression (Il1β, Il6, Tnf, Ccl3, Mcp1)” value is “reduced expression of early response inflammatory genes”; the “Effect on BR103-induced mast cell activation and degranulation” value is “attenuated BR103-induced increased activation”. The “Effect on BR103-induced paw swelling” value in the experiment with mast cells (BR103 350 µg/paw i.pl.) is “significant reduction in BR103-induced paw swelling at 0.5 h, almost back to baseline levels”.
Take “Ac-cyclo-(2,6)-Phe-[Orn-Pro-dCha-Trp-Arg] [Compound 3D53, reference compound]”: on C5aR, the “C5aR binding by competition with [125I]-hC5a” value is listed as “C5aR-binding”.

B1: hC5a: human complement protein C5a, ligand of C5aR (protein, UniProt P01031 678-751, looked up)
C5a anaphylatoxin: TLQKKIEEIAAKYKHSVVKKCCYDGACVNNDETCEQRAARISLGPRCIKAFTECCVVASQLRANISHKDMQLGR
modifications: C5a anaphylatoxin
notes: human complement protein C5a, ligand of C5aR
B1: the “C5aR binding by competition with [125I]-hC5a” value with C5aR was “C5aR-binding”.
